Assay results from US12344615B2, “Substituted pyridines as ion channel modulators” (PRAXIS PRECISION MEDICINES, INC., priority 2019, dated 2025).

These compounds were tested against T1, INaL v1.6 (late sodium current, HEK-293 cells expressing recombinant sodium channels) (Homo sapiens, UniProt Q9UQD0) (assay: Inhibition of ATX-II evoked Nav late current (INaL), PatchXpress electrophysiology). Settings: HEK293, compound at 1 μM, late current evoked by ATX-II 300 nM.
T1 construct: expressed in transfected cells; host or cells: HEK-293
T1 sequence (Q9UQD0 whole entry): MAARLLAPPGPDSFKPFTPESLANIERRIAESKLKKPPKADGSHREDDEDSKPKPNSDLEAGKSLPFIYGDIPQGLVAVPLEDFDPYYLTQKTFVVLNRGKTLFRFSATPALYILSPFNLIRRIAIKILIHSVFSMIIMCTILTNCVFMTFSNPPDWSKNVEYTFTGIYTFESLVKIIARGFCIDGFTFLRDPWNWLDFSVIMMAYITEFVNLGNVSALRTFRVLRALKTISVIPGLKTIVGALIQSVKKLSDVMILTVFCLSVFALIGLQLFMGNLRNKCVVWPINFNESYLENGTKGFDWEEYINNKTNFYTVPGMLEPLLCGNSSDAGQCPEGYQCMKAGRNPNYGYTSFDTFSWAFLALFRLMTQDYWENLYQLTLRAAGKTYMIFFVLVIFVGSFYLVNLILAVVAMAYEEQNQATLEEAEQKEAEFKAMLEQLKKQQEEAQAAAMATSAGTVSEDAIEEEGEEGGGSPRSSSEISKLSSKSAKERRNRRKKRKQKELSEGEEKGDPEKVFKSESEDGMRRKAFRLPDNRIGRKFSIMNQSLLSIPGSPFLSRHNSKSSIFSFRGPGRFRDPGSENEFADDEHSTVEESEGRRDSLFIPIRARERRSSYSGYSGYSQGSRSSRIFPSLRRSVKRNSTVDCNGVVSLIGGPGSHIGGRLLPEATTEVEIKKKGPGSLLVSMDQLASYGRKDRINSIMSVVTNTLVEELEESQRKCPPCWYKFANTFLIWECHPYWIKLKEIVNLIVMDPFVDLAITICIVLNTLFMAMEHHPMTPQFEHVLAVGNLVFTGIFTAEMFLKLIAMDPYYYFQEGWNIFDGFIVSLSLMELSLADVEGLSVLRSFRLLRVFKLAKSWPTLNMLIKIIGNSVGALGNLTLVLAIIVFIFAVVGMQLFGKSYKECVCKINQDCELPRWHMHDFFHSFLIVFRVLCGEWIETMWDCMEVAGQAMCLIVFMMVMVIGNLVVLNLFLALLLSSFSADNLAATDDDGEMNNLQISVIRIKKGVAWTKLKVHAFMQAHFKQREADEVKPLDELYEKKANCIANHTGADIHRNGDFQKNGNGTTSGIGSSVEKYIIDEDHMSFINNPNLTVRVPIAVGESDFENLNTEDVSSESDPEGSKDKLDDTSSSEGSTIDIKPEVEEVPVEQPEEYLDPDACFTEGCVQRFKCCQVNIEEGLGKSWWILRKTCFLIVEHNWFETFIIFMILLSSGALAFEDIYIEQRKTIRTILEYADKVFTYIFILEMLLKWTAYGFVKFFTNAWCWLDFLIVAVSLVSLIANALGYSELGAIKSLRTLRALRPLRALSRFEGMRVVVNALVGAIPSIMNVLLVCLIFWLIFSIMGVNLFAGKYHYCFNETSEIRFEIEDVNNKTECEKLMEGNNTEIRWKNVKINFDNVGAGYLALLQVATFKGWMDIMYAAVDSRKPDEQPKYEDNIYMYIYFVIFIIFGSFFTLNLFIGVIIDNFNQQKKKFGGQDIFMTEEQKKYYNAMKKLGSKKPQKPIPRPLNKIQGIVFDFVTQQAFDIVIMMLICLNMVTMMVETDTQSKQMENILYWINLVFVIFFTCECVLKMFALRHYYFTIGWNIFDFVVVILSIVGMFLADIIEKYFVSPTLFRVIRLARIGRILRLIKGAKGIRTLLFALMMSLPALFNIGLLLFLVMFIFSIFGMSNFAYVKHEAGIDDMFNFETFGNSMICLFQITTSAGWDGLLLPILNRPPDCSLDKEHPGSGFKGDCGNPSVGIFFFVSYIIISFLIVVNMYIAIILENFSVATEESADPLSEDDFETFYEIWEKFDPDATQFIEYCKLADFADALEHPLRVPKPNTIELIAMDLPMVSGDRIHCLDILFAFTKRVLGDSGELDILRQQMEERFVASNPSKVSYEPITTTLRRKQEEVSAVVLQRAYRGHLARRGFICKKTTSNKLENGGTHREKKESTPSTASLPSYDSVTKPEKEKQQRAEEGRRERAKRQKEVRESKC
Format: cell-based
Method: Functional characterization of exemplary compounds to modulate voltage gated sodium currents was accomplished using the PatchXpress™ high throughput electrophysiology platforms (Molecular Devices, Sunnyvale, CA). HEK-293 cells expressing recombinant sodium channels were grown in DMEM/high-glucose Dulbecco's modified, 10% FBS, 2 mM sodium pyruvate, and G418. Nav channel expressing cells were grown to 50%-80% confluency and harvested by trypsinization. Trypsinized cells were washed and resuspended in extracellular buffer at a concentration of 1×10^6 cells/ml. The onboard liquid handling facility of the PatchXpress was used for dispensing cells and application of test compounds. Nav late currents were evoked by the application of ATX-II, 300 nM. Currents were evoked by depolarizing pulses to 0 mV for 200 ms from a non-inactivating holding potential (e.g., −120 mV to −150 mV) at a frequency of 0.1 Hz. Late current amplitude and stability were determined by analyzing the mean current amplitude over the 175-195 msec region of the 200 msec test pulse. Following steady state block with exemplary compounds (e.g., as described herein) at 1 μM, a Na^+ free solution containing an impermeant cation (e.g., Choline or NDMG) was added for determination of the 0 current level. Late current amplitudes for each test condition were determined from the mean of the 175-195 msec region of the 200 msec test pulse. Percent inhibition of steady state currents was calculated as (compound−baseline)/(control−baseline)*100, where control represents INaL recorded in the absence of compound.
`C[C@H](Oc1ncc(-c2nn3c(C(F)(F)F)nnc3cc2Cl)cc1F)C(F)(F)F` [Compound 43, 7-chloro-6-[5-fluoro-6-[(1S)-2,2,2-trifluoro-1-methyl-ethoxy]-3-pyridyl]-3-(trifluoromethyl)-[1,2,4]triazolo[4,3-b]pyridazine] was tested, and the inhibition at 1 µM was 50 to 75%. Work on `Cc1c(-c2cnc(O[C@@H](C)C(F)(F)F)c(F)c2)ncc2nnc(C(F)(F)F)n12` [Compound 38, 6-[5-fluoro-6-[(1S)-2,2,2-trifluoro-1-methyl-ethoxy]-3-pyridyl]-5-methyl-3-(trifluoromethyl)-[1,2,4]triazolo[4,3-a]pyrazine] yielded an inhibition at 1 µM of 50 to 75%. Work on `CC(C)(Oc1ncc(-c2cn3c(C4CC4(F)F)nnc3cn2)cc1F)C(F)(F)F` (stereo not shown) [Compound 10, 3-(2,2-difluorocyclopropyl)-6-[5-fluoro-6-(2,2,2-trifluoro-1,1-dimethyl-ethoxy)-3-pyridyl]-[1,2,4]triazolo[4,3-a]pyrazine] yielded an inhibition at 1 µM of 50 to 75%. `Fc1cc(-c2ccc3nnc(C(F)(F)F)n3n2)cnc1OC1CC(F)(F)C1(F)F` (stereo not shown) [Compound 26, 6-[5-fluoro-6-(2,2,3,3-tetrafluorocyclobutoxy)-3-pyridyl]-3-(trifluoromethyl)-[1,2,4]triazolo[4,3-b]pyridazine] was tested, and the inhibition at 1 µM was greater than 75%. `Cc1cc2nnc(C(F)(F)F)n2nc1-c1ccc(OC(C)(C)C(F)(F)F)nc1` [Compound 51, 7-methyl-6-[6-(2,2,2-trifluoro-1,1-dimethyl-ethoxy)-3-pyridyl]-3-(trifluoromethyl)-[1,2,4]triazolo[4,3-b]pyridazine] gave an inhibition at 1 µM of 50 to 75%. With `CC(C)(Oc1ncc(-c2ccc3nnc(C4CC4(F)F)n3n2)cc1F)C(F)(F)F` (stereo not shown) [Compound 12, 3-(2,2-difluorocyclopropyl)-6-[5-fluoro-6-(2,2,2-trifluoro-1,1-dimethyl-ethoxy)-3-pyridyl]-[1,2,4]triazolo[4,3-b]pyridazine] the inhibition at 1 µM was greater than 75%. For `CC(C)(Oc1ncc(-c2ccc3nnc(C4CC4(F)F)n3n2)cc1F)C(F)(F)F` (single isomer, unassigned) [11 (Isomer 1)], the inhibition at 1 µM was greater than 75%. With `C[C@H](Oc1ccc(-c2nn3c(C(F)(F)F)nnc3cc2Cl)cn1)C(F)(F)F` [Compound 46, (S)-7-chloro-3-(trifluoromethyl)-6-(6-((1,1,1-trifluoropropan-2-yl)oxy)pyridin-3-yl)-[1,2,4]triazolo[4,3-b]pyridazine] the inhibition at 1 µM was greater than 75%. With `CC(C)(Oc1ncc(-c2cn3c(C(F)F)nnc3cn2)cc1F)C(F)(F)F` [Compound 1, 3-(difluoromethyl)-6-[5-fluoro-6-(2,2,2-trifluoro-1,1-dimethyl-ethoxy)-3-pyridyl]-[1,2,4]triazolo[4,3-a]pyrazine] the inhibition at 1 µM was greater than 75%. `CC(C)(Oc1ncc(-c2ccc3nnc(C(F)(F)F)n3n2)cc1F)C(F)(F)F` [Compound 34, 6-[5-fluoro-6-(2,2,2-trifluoro-1,1-dimethyl-ethoxy)-3-pyridyl]-3-(trifluoromethyl)-[1,2,4]triazolo[4,3-b]pyridazine] was tested, and the inhibition at 1 µM was greater than 75%. Work on `CC(C)(Oc1ncc(-c2cn3c(C4CC4(F)F)nnc3cn2)cc1F)C(F)(F)F` (single isomer, unassigned) [13 (Isomer 1)] yielded an inhibition at 1 µM of less than 50%. `Cc1cc2nnc(C(F)(F)F)n2nc1-c1ccc(O[C@H](C)C(F)(F)F)nc1` [Compound 49, (R)-7-methyl-3-(trifluoromethyl)-6-(6-((1,1,1-trifluoropropan-2-yl)oxy)pyridin-3-yl)-[1,2,4]triazolo[4,3-b]pyridazine] gave an inhibition at 1 µM of 50 to 75%. `C[C@H](Oc1ncc(-c2cn3c(C4CC(F)(F)C4)nnc3cn2)cc1F)C(F)(F)F` [Compound 19, 3-(3,3-difluorocyclobutyl)-6-[5-fluoro-6-[(1S)-2,2,2-trifluoro-1-methyl-ethoxy]-3-pyridyl]-[1,2,4]triazolo[4,3-a]pyrazine] was tested, and the inhibition at 1 µM was 50 to 75%. With `C[C@H](Oc1ncc(-c2cn3c(C4CC4(F)F)nnc3cn2)cc1F)C(F)(F)F` (single isomer, unassigned) [18 (Isomer 1)] the inhibition at 1 µM was less than 50%. With `Fc1cc(-c2ccc3nnc(C(F)(F)F)n3n2)cnc1OC1(C(F)(F)F)COC1` [Compound 4, 6-[5-fluoro-6-[3-(trifluoromethyl)oxetan-3-yl]oxy-3-pyridyl]-3-(trifluoromethyl)-[1,2,4]triazolo[4,3-b]pyridazine] the inhibition at 1 µM was 50 to 75%. In the case of `Fc1cc(-c2ccc3nnc(C(F)F)n3n2)cnc1OCC1CC1(F)F` (stereo not shown) [Compound 22, 6-[6-[(2,2-difluorocyclopropyl)methoxy]-5-fluoro-3-pyridyl]-3-(difluoromethyl)-[1,2,4]triazolo[4,3-b]pyridazine], the inhibition at 1 µM is reported as less than 50%. `Fc1cc(-c2ccc3nnc(C(F)(F)F)n3n2)cnc1OCC1CC1(F)F` (single isomer, unassigned) [23 (Isomer 1)] was tested, and the inhibition at 1 µM was 50 to 75%. `Fc1cc(-c2cn3c(C(F)(F)F)nnc3cn2)cnc1OCC1CC1(F)F` (single isomer, unassigned) [28 (Isomer 1)] gave an inhibition at 1 µM of 50 to 75%. Compound `C[C@@H](Oc1ncc(-c2cn3c(C4CC(F)(F)C4)nnc3cn2)cc1F)C(F)(F)F` [Compound 20, 3-(3,3-difluorocyclobutyl)-6-[5-fluoro-6-[(1R)-2,2,2-trifluoro-1-methyl-ethoxy]-3-pyridyl]-[1,2,4]triazolo[4,3-a]pyrazine] has an inhibition at 1 µM of less than 50%. In the case of `CC(C)(Oc1ncc(-c2ccc3nnc(C4CC(F)(F)C4)n3n2)cc1F)C(F)(F)F` [Compound 14, 3-(3,3-difluorocyclobutyl)-6-[5-fluoro-6-(2,2,2-trifluoro-1,1-dimethyl-ethoxy)-3-pyridyl]-[1,2,4]triazolo[4,3-b]pyridazine], the inhibition at 1 µM is reported as greater than 75%. Compound `CC(C)(Oc1ncc(-c2cn3c(C(F)(F)F)nnc3cn2)cc1F)C(F)(F)F` [Compound 3, 6-[5-fluoro-6-(2,2,2-trifluoro-1,1-dimethyl-ethoxy)-3-pyridyl]-3-(trifluoromethyl)-[1,2,4]triazolo[4,3-a]pyrazine] has an inhibition at 1 µM greater than 75%. In the case of `Fc1cc(-c2cn3c(C(F)(F)F)nnc3cn2)cnc1OC1(C(F)(F)F)COC1` [Compound 2, 6-[5-fluoro-6-[3-(trifluoromethyl)oxetan-3-yl]oxy-3-pyridyl]-3-(trifluoromethyl)-[1,2,4]triazolo[4,3-a]pyrazine], the inhibition at 1 µM is reported as less than 50%. `Fc1cc(-c2cn3c(C(F)F)nnc3cn2)cnc1OC1(C(F)(F)F)CCC1` [Compound 9, 3-(difluoromethyl)-6-[5-fluoro-6-[1-(trifluoromethyl)cyclobutoxy]-3-pyridyl]-[1,2,4]triazolo[4,3-a]pyrazine] showed an inhibition at 1 µM greater than 75%. `Fc1cc(-c2ccc3nnc(C(F)(F)F)n3n2)cnc1OC1(C(F)(F)F)CCC1` [Compound 6, 6-[5-fluoro-6-[1-(trifluoromethyl)cyclobutoxy]-3-pyridyl]-3-(trifluoromethyl)-[1,2,4]triazolo[4,3-b]pyridazine] was tested, and the inhibition at 1 µM was greater than 75%. Work on `Fc1cc(-c2cn3c(C(F)(F)F)nnc3cn2)cnc1OC1CC(F)(F)C1(F)F` (stereo not shown) [Compound 33, 6-[5-fluoro-6-(2,2,3,3-tetrafluorocyclobutoxy)-3-pyridyl]-3-(trifluoromethyl)-[1,2,4]triazolo[4,3-a]pyrazine] yielded an inhibition at 1 µM greater than 75%. In the case of `Fc1cc(-c2cn3c(C(F)(F)F)nnc3cn2)cnc1OCC1CC1(F)F` (stereo not shown) [Compound 29], the inhibition at 1 µM is reported as 50 to 75%. `Fc1cc(-c2cn3c(C(F)(F)F)nnc3cn2)cnc1OC1CC(F)(F)C1(F)F` (single isomer, unassigned) [32 (Isomer 1)] showed an inhibition at 1 µM greater than 75%. Compound `C[C@@H](Oc1ncc(-c2nn3c(C(F)(F)F)nnc3cc2Cl)cc1F)C(F)(F)F` [Compound 42, 7-chloro-6-[5-fluoro-6-[(1R)-2,2,2-trifluoro-1-methyl-ethoxy]-3-pyridyl]-3-(trifluoromethyl)-[1,2,4]triazolo[4,3-b]pyridazine] has an inhibition at 1 µM of 50 to 75%. `Fc1cc(-c2cn3c(C(F)(F)F)nnc3cn2)cnc1OC1(C(F)(F)F)CCC1` [Compound 7, 6-[5-fluoro-6-[1-(trifluoromethyl)cyclobutoxy]-3-pyridyl]-3-(trifluoromethyl)-[1,2,4]triazolo[4,3-a]pyrazine] showed an inhibition at 1 µM greater than 75%. `CC(C)(Oc1ncc(-c2nn3c(C(F)(F)F)nnc3cc2Cl)cc1F)C(F)(F)F` [Compound 41, 7-chloro-6-[5-fluoro-6-(2,2,2-trifluoro-1,1-dimethyl-ethoxy)-3-pyridyl]-3-(trifluoromethyl)-[1,2,4]triazolo[4,3-b]pyridazine] showed an inhibition at 1 µM greater than 75%. Work on `Fc1cc(-c2cn3c(C(F)F)nnc3cn2)cnc1OCC1CC1(F)F` (stereo not shown) [Compound 31, 6-[6-[(2,2-difluorocyclopropyl)methoxy]-5-fluoro-3-pyridyl]-3-(difluoromethyl)-[1,2,4]triazolo[4,3-a]pyrazine] yielded an inhibition at 1 µM of less than 50%. `FC(F)c1nnc2cnc(-c3ccc(OC4CC(F)(F)C4)nc3)cn12` [Compound 52, 6-(6-(3,3-difluorocyclobutoxy)pyridin-3-yl)-3-(difluoromethyl)-[1,2,4]triazolo [4,3-a]pyrazine] was tested, and the inhibition at 1 µM was 50 to 75%. `C[C@@H](Oc1ncc(-c2cn3c(C4CC4(F)F)nnc3cn2)cc1F)C(F)(F)F` (single isomer, unassigned) [16 (Isomer 1)] gave an inhibition at 1 µM of less than 50%.

Same assay, conditions: compound at 1 μM, late current evoked by ATX-II 300 nM
With `C[C@H](Oc1ncc(-c2cn3c(C4CC4(F)F)nnc3cn2)cc1F)C(F)(F)F` (single isomer, unassigned) [18 (Isomer 2)] the “INaL v1.6 % Inhibition” value was “B (inhibition of 50% to 75%)”.
